Source: paper PMC7932537, “Quantitative profiling of protease specificity” (PLoS Computational Biology, 2021)

Legend:
[1] = target: T1, MMP-2 (Homo sapiens, UniProt P08253); test: K(obs) of individual phage substrates (set of 1369); format: biochemical; settings: MMP2
T1 sequence (P08253 110-660): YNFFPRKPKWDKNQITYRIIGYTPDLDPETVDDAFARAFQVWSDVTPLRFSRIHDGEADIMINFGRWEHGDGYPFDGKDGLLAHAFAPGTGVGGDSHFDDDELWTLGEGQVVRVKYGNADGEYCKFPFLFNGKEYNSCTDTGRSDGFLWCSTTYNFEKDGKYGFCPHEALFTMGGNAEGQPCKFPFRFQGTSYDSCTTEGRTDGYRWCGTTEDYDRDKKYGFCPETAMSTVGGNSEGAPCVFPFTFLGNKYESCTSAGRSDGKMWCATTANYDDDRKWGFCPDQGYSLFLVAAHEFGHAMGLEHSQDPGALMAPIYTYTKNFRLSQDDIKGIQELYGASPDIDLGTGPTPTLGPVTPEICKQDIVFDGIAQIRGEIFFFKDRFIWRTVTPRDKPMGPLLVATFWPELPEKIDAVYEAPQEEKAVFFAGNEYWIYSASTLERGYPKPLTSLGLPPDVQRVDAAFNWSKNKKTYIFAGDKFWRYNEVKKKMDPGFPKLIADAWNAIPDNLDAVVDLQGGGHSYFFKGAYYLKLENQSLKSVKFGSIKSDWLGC

[2] = target: MMP-9 (Homo sapiens, UniProt P14780); test: as above; format: biochemical; settings: MMP9, individual phage substrates, set of 1369 peptides
[3] = individual phage substrates, set of 1369 peptides, cleavage position marked by '-' in the sequence
[4] = '-' marks the cleavage position (P1-P1')
[5] = individual phage substrate from the set of 1369 peptides, cleavage position marked by the dash in the sequence
[6] = dash in sequence marks cleavage position

Chain of MMP-9 (P14780 94-707): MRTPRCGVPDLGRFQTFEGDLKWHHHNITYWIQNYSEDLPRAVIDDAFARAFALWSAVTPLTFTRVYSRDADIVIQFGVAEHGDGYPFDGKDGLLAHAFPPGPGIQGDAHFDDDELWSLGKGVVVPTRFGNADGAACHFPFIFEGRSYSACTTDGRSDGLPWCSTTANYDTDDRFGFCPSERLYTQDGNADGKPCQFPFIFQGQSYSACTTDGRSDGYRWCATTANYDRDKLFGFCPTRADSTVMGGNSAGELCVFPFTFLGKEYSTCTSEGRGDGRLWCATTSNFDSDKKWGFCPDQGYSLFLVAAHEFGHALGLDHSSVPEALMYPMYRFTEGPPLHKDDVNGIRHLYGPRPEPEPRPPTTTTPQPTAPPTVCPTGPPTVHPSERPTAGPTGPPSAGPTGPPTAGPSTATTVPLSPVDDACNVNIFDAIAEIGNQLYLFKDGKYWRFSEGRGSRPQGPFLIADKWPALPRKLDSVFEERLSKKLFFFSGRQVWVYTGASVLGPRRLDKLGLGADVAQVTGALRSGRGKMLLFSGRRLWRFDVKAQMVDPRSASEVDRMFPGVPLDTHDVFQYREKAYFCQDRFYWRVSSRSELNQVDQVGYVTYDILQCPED

Row | Substance | Kobs [1, 3] [M⁻¹ s⁻¹] | Kobs [2, 4] [M⁻¹ s⁻¹] | Kobs [1, 5] [M⁻¹ s⁻¹] | Kobs [2, 6] [M⁻¹ s⁻¹]
1 | ESAQM-ITASG | 142.481 | 0 |  | 
2 | ANAMN-LTASG | 1513.13 | 2761.81 |  | 
3 | GGSGM-LLMKQ | 0 | 0 |  | 
4 | GVLHS-LRTAS | 0 | 0 |  | 
5 | FTVHM-LTASG |  |  | 1418.96 | 1513.13
6 | GCAQE-LTTAS |  |  | 113.394 | 27.918
7 | TAPIN-LTASG | 12792.1 | 12792.1 |  | 
8 | SGYRF-MTLTA | 0 | 0 |  | 
9 | SGVLS-LRYTA | 1154.21 | 2837.92 |  | 
10 | SGPAP-LVLTA | 12792.1 | 6688.74 |  | 
11 | SSPLY-LTASG | 12792.1 | 12792.1 |  | 
12 | SGLWT-LMATA | 0 | 0 |  | 
13 | SGPAA-LQSTA |  |  | 8321.48 | 6688.74
14 | SGAFS-LMRTA | 323.705 | 451.441 |  | 
15 | GQPRN-LSTAS |  |  | 12792.1 | 12792.1
16 | GMVLN-LTASG | 12792.1 | 7015.91 |  | 
17 | SGVMY-LQVTA |  |  | 0 | 654.784
18 | RRPLR-ITASG |  |  | 3165.09 | 12792.1
19 | YSALP-MTASG |  |  | 1561.44 | 3964.21
20 | SGLAK-LTVTA | 0 | 0 |  | 
21 | GVPSW-LSTAS | 12792.1 | 12792.1 |  | 
22 | PTLWR-ITASG |  |  | 386.839 | 0
23 | GSGSD-LKSKT |  |  | 12792.1 | 355.093
24 | GRALA-MQTAS | 3637.04 | 2218.08 |  | 
25 | YFARQ-LTASG | 2038.8 | 3438.54 |  | 
26 | GGLGM-MLTAS | 836.403 | 0 |  | 

Row | Substance | Kobs [1, 3] [M⁻¹ s⁻¹] | Kobs [2, 4] [M⁻¹ s⁻¹] | Kobs [1, 5] [M⁻¹ s⁻¹] | Kobs [2, 6] [M⁻¹ s⁻¹]
27 | GGSGQ-LFNVG |  |  | 4470.66 | 762.325
28 | GRPLQ-YRTAS | 12792.1 | 10866.7 |  | 
29 | KMPRW-ITASG |  |  | 6131.32 | 9740.44
30 | GVVHS-FCTAS | 0 | 0 |  | 
31 | VTPLY-LTASG | 12792.1 | 12792.1 |  | 
32 | SGIES-MYVTA | 0 | 0 |  | 
33 | ATASF-LTASG | 5889.62 | 27.918 |  | 
34 | ERLLH-LTASG |  |  | 2837.92 | 231.616
35 | MDLLS-LTASG |  |  | 1327.88 | 0
36 | YATWS-MTASG | 0 | 27.918 |  | 
37 | KRAAS-LTASG | 12792.1 | 1283.43 |  | 
38 | SGANY-IRATA |  |  | 1465.65 | 418.952
39 | GGSGA-YTMVA |  |  | 726.013 | 551.253
40 | VSVDQ-LTASG |  |  | 0 | 0
41 | GEVWR-LHTAS |  |  | 56.119 | 0
42 | GWMHE-LKTAS | 0 | 0 |  | 
43 | PDVFA-LTASG | 3637.04 | 6688.74 |  | 
44 | SGVRF-MRQTA |  |  | 231.616 | 1513.13
45 | GSGAW-LKKIT | 0 | 0 |  | 
46 | PMARY-LTASG | 12792.1 | 3637.04 |  | 
47 | HYPSS-LTASG | 12792.1 | 12792.1 |  | 
48 | SGTWR-LMLTA |  |  | 0 | 27.918
49 | EAVGN-LTASG |  |  | 12792.1 | 585.336
50 | GGSGR-LMYER |  |  | 0 | 0
51 | GVAKP-LWTAS | 484.315 | 2280.5 |  | 
52 | QRANS-ITASG | 551.253 | 0 |  | 

Row | Substance | Kobs [1, 3] [M⁻¹ s⁻¹] | Kobs [2, 4] [M⁻¹ s⁻¹] | Kobs [1, 5] [M⁻¹ s⁻¹] | Kobs [2, 6] [M⁻¹ s⁻¹]
53 | GMYLN-LKTAS | 0 | 0 |  | 
54 | GGSGQ-LLATK |  |  | 619.843 | 0
55 | FAAYS-LTASG | 5667.28 | 12792.1 |  | 
56 | SGPSS-LLGTA | 12792.1 | 12792.1 |  | 
57 | SGPYN-LRGTA | 12792.1 | 12792.1 |  | 
58 | FMMGN-MTASG | 12792.1 | 84.609 |  | 
59 | NRPSA-LTASG | 12792.1 | 12792.1 |  | 
60 | TTSAS-LTASG |  |  | 3165.09 | 171.876
61 | NTFLH-LTASG |  |  | 0 | 0
62 | DVAFH-LTASG | 1925.41 | 1283.43 |  | 
63 | SGVWG-IRYTA | 654.784 | 1925.41 |  | 
64 | HVLQN-LTASG | 12792.1 | 201.585 |  | 
65 | SMPRM-LTASG | 12792.1 | 10866.7 |  | 
66 | YTMLH-LTASG |  |  | 726.013 | 0
67 | GSGNR-LMRLT | 0 | 0 |  | 
68 | NFPMS-LTASG | 12792.1 | 12792.1 |  | 
69 | GQPFA-LSTAS | 12792.1 | 12792.1 |  | 
70 | SGYAH-MRVTA | 0 | 0 |  | 
71 | MVPSA-LTASG | 7015.91 | 8941.32 |  | 
72 | SWGLA-LTASG | 619.843 | 690.17 |  | 
73 | GGSGA-LTSRF |  |  | 4613.14 | 0
74 | GSGLA-LKMGT |  |  | 84.609 | 0
75 | GDVRH-IFTAS |  |  | 231.616 | 261.974
76 | GTIFR-LTASG | 551.253 | 619.843 |  | 
77 | GKVNN-LVTAS | 517.582 | 201.585 |  | 
78 | GGSGE-LRLSN | 56.119 | 0 |  | 

Row | Substance | Kobs [1, 3] [M⁻¹ s⁻¹] | Kobs [2, 4] [M⁻¹ s⁻¹] | Kobs [1, 5] [M⁻¹ s⁻¹] | Kobs [2, 6] [M⁻¹ s⁻¹]
79 | RRPAS-MTASG | 5090.5 | 7015.91 |  | 
80 | SGPIP-IRKTA | 12792.1 | 12792.1 |  | 
81 | RRTAW-LTASG | 8321.48 | 1373.05 |  | 
82 | SGPLA-STVTA | 0 | 3741.87 |  | 
83 | SGPHS-MKLTA | 0 | 323.705 |  | 
84 | SGLLN-MYITA | 0 | 0 |  | 
85 | LQPLT-ITASG | 5090.5 | 12792.1 |  | 
86 | SGSWS-LILTA | 0 | 0 |  | 
87 | IEYLN-YTASG | 231.616 | 355.093 |  | 
88 | GGSGQ-LLLRN | 0 | 0 |  | 
89 | GLPQA-LLTAS | 12792.1 | 12792.1 |  | 
90 | SGVWP-LVKTA |  |  | 0 | 0
91 | SGARN-LMATA | 10866.7 | 12792.1 |  | 
92 | GSGFQ-LRVFT | 0 | 84.609 |  | 
93 | GSPVQ-LTTAS | 1816.46 | 1327.88 |  | 
94 | LPTRW-LTASG | 7815.03 | 4082.43 |  | 
95 | QKYSN-LTASG | 5889.62 | 0 |  | 
96 | GVLGH-LSTAS | 3438.54 | 0 |  | 
97 | MFHLN-ITASG | 1373.05 | 690.17 |  | 
98 | RYPVN-MTASG | 6688.74 | 5090.5 |  | 
99 | EKVML-MTASG | 0 | 27.918 |  | 
100 | VSISF-LTASG | 12792.1 | 654.784 |  | 
101 | GSGWD-LKRST |  |  | 142.481 | 0
102 | QHLAA-LTASG | 12792.1 | 484.315 |  | 
103 | VAISR-LTASG |  |  | 12792.1 | 113.394
104 | SGMLS-LVITA | 0 | 0 |  | 
